The test system of experiment [1] is OCI-AML5 cells. Nature of the experiment: MTT antiproliferative assay, OCI-AML5 cells. The note with it: 72 h. Type of experiment: cell-based, human. How it is done:
(§1) Cells were grown in a 5% CO2 incubator at 37 °C. We used trypsin to digest cells in logarithmic growth phase. Then, we plated the cells in 96-well plates at 5000 cells per well evenly. After cell adherence, chalcones were added in the 96-well plates for 48 h or 72 h. We added MTT reagent to each well and incubated for 2 h in the incubator. Finally, the absorbance value was measured at 490 nm after treatment with DMSO.
A general note: Formazan colour is commonly taken as a measure of viable cells.

The next experiment has as its system CESS cells. Nature of the experiment: MTT antiproliferative assay, CESS cells. Type of experiment: cell-based, human. The note with it: 72 h. How it is done:
as §1

Experiment [2] has as its system OCI-AML5 cells. Nature of the experiment: Transwell migration assay, OCI-AML5 cells. Type of experiment: cell-based, human. To be noted: 24 h. The protocol:
(§2) The cells (100 μl, 1 × 10^6 cells/ml) were suspended in the medium which contained 0.1% FBS and plated to the upper chamber of the transwell. The lower wells were incubated with the addition of the medium (600 μl per well), which included CCL25 (100 ng/ml; Cedarlane Laboratories, Burlington, Canada) and 0.1% FBS. The cells were hatched for 24 h at 37 °C with 5% CO2. Finally, the cells in the lower chamber were counted under a light microscope.

For experiment [3], the system named is ML-2 cells. Nature of the experiment: MTT antiproliferative assay, ML-2 cells. The note with it: 72 h. Type of experiment: cell-based, human. How it is done: as §1
Experiment [4] has as its system colchicine binding site of β-tubulin. Nature of the experiment: EBI competition assay in ML-2 cells. Type of experiment: cell-based, human. The note with it: preincubation at 10 μM, Western Blot. The protocol:
ML-2 cells were seeded in 6-well plates for 24 h. 4′-O-Methylbroussochalcone B and colchicine treated them for 2 h respectively. Then, EBI were added. After 90 min, ML-2 cells were harvested to do Western Blot analysis. The signals were then visualized using chemiluminescent substrate (Zhengzhou research company, Zhengzhou, China).

The test system of a further experiment is GDM-1 cells. Nature of the experiment: MTT antiproliferative assay, GDM-1 cells. To be noted: 72 h; for cell proliferation rate: 16 μM. Type of experiment: cell-based, human. How it is done:
as §1

The test system of experiment [5] is OCI-AML5 cells. As to the kind of experiment: Cell cycle assay, OCI-AML5 cells. The note with it: 2 μM and 4 μM, 48 h. Type of experiment: cell-based, human. The protocol:
(§3) The samples of fixed cells were stained with 50 μg/ml Propidium iodide (PI, Sigma) in the dark for 30 min at room temperature, following the manufacturer’s protocol. Then the samples were tested by flow cytometer (Becton, Dickinson and Company, NJ). Data were analyzed via CellQuest software.

In experiment [6] the test system is ML-2 cells. Nature of the experiment: Cell cycle assay, ML-2 cells. Type of experiment: cell-based, human. The note with it: 2 μM and 4 μM, 48 h. How it is done:
as §3

For the next experiment, the system named is tubulin. Nature of the experiment: Tubulin polymerization assay in vitro. Type of experiment: biochemical. The note with it: 2 mg/mL tubulin, 60 min, 37 °C; read-out: IC50, inhibition of tubulin polymerization. How it is done: An amount of 2 mg/mL tubulin was resuspended in PEM buffer, consisted of 80 mM PIPES (pH 6.9), 2 mM MgCl2, 0.5 mM EGTA, and 15% glycerol. 4′-O-Methylbroussochalcone B (1 μM, 3 μM and 6 μM) was preincubated on ice. The reaction was monitored by a spectrophotometer in absorbance at 340 nm at 37 °C.
The tubulin assembly assay measured the extent of assembly of 2 mg/mL tubulin after 60 min at 37 °C. Data are presented as mean from three independent experiments.
The tubulin assembly assay measured the extent of assembly of 2 mg/mL tubulin after 60 minutes at 37 °C. Data are presented as mean from three independent experiments.

The test system of a further experiment is β-tubulin. Nature of the experiment: Immunofluorescence staining of β-tubulin in ML-2 cells. Type of experiment: cell-based, human. The note with it: 1 μM and 2 μM, 24 h. The protocol: ML-2 cells were seeded into 6-well plates and then treated with 4′-O-Methylbroussochalcone B for 24 h. ML-2 cells were washed with phosphate buffer solution (PBS), and then fixed in 4% paraformaldehyde. After blocking for 0.5 h in 5% goat serum albumin, ML-2 cells were incubated with anti-β-tubulin for 2 h. Then, ML-2 cells were washed by PBS and labeled by 4, 6-diamidino-2-phenylindole.

For experiment [7], the system named is ML-2 cells. Nature of the experiment: Apoptosis assay (Annexin V-FITC/PI flow cytometry), ML-2 cells. Type of experiment: cell-based, human. To be noted: 48 h. How it is done:
(§4) ML-2 cells and OCI-AML5 cells were seeded in 6-well culture plates and treated with certain concentration of 4′-O-Methylbroussochalcone B for 48 h. Cells were harvested and suspended in binding buffer containing Annexin V-FITC (0.5 mg/mL) and PI (0.5 mg/mL) then. After that, samples were incubated for 25 min in dark and analyzed with flow cytometry (Becton, Dickinson and Company, NJ).
A general note: A flow cytometer gives signals particle by particle.

Experiment [8] has as its system OCI-AML5 cells. Nature of the experiment: Apoptosis assay (Annexin V-FITC/PI flow cytometry), OCI-AML5 cells. Type of experiment: cell-based, human. To be noted: 48 h. How it is done: as §4
Experiment [9] relates to ML-2 cells. Nature of the experiment: Transwell migration assay, ML-2 cells. Type of experiment: cell-based, human. To be noted: 24 h. The protocol:
as §2

For 4′-O-Methylbroussochalcone B, the IC50 (usually the point on the concentration scale where inhibition reaches its midpoint) with OCI-AML5 cells [1] turned out to be 2.03 µM; with CESS cells, 4.2 µM; with ML-2 cells [3] it was 1.16 µM; in the experiment on GDM-1 cells it was 3.57 µM; with tubulin, 2.86 µM. Also, the cell migration entry in the experiment with OCI-AML5 cells [2] and in the experiment on ML-2 cells [9] was “evidently inhibited” throughout. Also, in [4], the “formation of EBI: β-tubulin adduct” value was “prevented the formation of EBI: β-tubulin adduct”. Moreover, in the experiment on GDM-1 cells, the cell proliferation rate is given as 8.14%. For the same compound, the “cell cycle distribution (G2-M phase)” value with OCI-AML5 cells [5] and in the experiment on ML-2 cells [6] was “arrested in the G2-M phase significantly” throughout. Besides, the “expression of β-tubulin (immunofluorescence)” value in the experiment with β-tubulin is reported as “suppressed in a concentration-dependent manner”. Besides, the “percentage of apoptotic cells (early and late phase)” value stood at 13.68% in the experiment on ML-2 cells [7] (2 μM) and 55.04% with ML-2 cells [7] (4 μM). Moreover, the apoptotic rate in the experiment with OCI-AML5 cells [8] (2 μM) amounted to 12.84%; in the experiment with OCI-AML5 cells [8] (4 μM), 24.13%.
On to `CC1(C)C=Cc2cc(C(=O)/C=C/c3ccc(O)cc3)c(O)cc2O1` [Bavachromene], for which the cell proliferation rate with GDM-1 cells is 29.40%. Further, the IC50 in the experiment on tubulin stood at 3.11 ± 0.1 µM.
For `CC(C)=CCc1cc(C(=O)/C=C/c2ccc(O)cc2)c(O)cc1O` [Broussochalcone B] the same measures were 29.67% and 5.13 ± 0.45 µM.
For `CC1(C)CCc2c(ccc(C(=O)/C=C/c3ccc(O)cc3)c2O)O1` [Dorsmanin A], in the experiment on GDM-1 cells, the cell proliferation rate is reported as 36.67%. For the same compound, the IC50 in the experiment on tubulin came to 4.39 ± 0.26 µM.
For the compound `CC(C)=CCc1c(O)ccc(C(=O)/C=C/c2ccc(O)cc2)c1O` [Isobavachalcone], in the experiment on GDM-1 cells, the cell proliferation rate is on record as 57.33%. The IC50 in the experiment on tubulin amounted to 6.38 ± 0.12 µM.
With `CC1(C)C=Cc2c(ccc(C(=O)/C=C/c3ccc(O)cc3)c2O)O1` [Isobavachromene], in the experiment on GDM-1 cells, the cell proliferation rate is 69.00%. Also, the IC50 with tubulin stood at 8.24 ± 0.74 µM.

For the origin of these results see article PMC7825173, “4’-O-Methylbroussochalcone B as a novel tubulin polymerization inhibitor suppressed the proliferation and migration of acute myeloid leukaemia cells” (BMC Cancer, 2021).
